Laboratory results reported in the supplement of paper PMC8967900.

Assays:
Assay in all cases: selective drug sensitivity score (sDSS, relative to normal bone marrow) (sDSS (score)); higher = more potent and effective on the cell line relative to normal bone marrow cells
Settings in all cases: 72 h
[1] = test system: MHH-CALL-4
[2] = test system: CCRF-HSB2
[3] = test system: PEER
[4] = test system: ALL-PO
[5] = test system: SUP-B15
[6] = test system: KASUMI-10
[7] = test system: HPB-ALL
[8] = test system: KARPAS-45
[9] = test system: CCRF-CEM
[10] = test system: 697
[11] = test system: JURKAT
[12] = test system: SEM cells
[13] = test system: P30-OHKUBO
[14] = test system: COG-LL-394h
[15] = test system: MOLT-14
[16] = test system: LC4-1
[17] = test system: COG-LL-319h
[18] = test system: PF-382
[19] = test system: NALL-1
[20] = test system: 380
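Further: ALL cell lines in 384-well plates, five doses spanning 10,000-fold, each plate scaled between vehicle and 100 µmol/L benzalkonium chloride controls, sDSS an adapted area-under-curve metric.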

SMILES	selective drug sensitivity score [1]	selective drug sensitivity score [2]	selective drug sensitivity score [3]	selective drug sensitivity score [4]	selective drug sensitivity score [5]	selective drug sensitivity score [6]	selective drug sensitivity score [7]	selective drug sensitivity score [8]	selective drug sensitivity score [9]	selective drug sensitivity score [10]	selective drug sensitivity score [11]	selective drug sensitivity score [12]	selective drug sensitivity score [13]	selective drug sensitivity score [14]	selective drug sensitivity score [15]	selective drug sensitivity score [16]	selective drug sensitivity score [17]	selective drug sensitivity score [18]	selective drug sensitivity score [19]	selective drug sensitivity score [20]
CC(C)C[C@H](NC(=O)CNC(=O)c1cc(Cl)ccc1Cl)B(O)O [Ixazomib] (top concentration 1000 nM)	7.96	8.86	7.66	8.46	11.5	3.16	8.46	5.96	10.5	5.56	4.86	13.1	6.66	5.26	4.96	6.46	6.06	7.86	6.56	5.56
COc1cc(N2CCC(N3CCN(C)CC3)CC2)ccc1Nc1ncc(Cl)c(Nc2ccccc2P(C)(C)=O)n1 [Brigatinib] (top concentration 1000 nM)	-3.34	-1.14	-3.34	4.16	-3.34	4.76	3.06	-1.74	-3.34	-1.84	-3.34	4.06	-3.34	-1.84	3.16	-0.94	3.26	-2.84	-3.34	-3.34
C=C(c1ccc(C(=O)O)cc1)c1cc2c(cc1C)C(C)(C)CCC2(C)C [Bexarotene] (top concentration 10000 nM)	3.3	-0.9	-3.8	3.7	-4.8	-1.9	-5.1	-1.8	-3.4	-2.7	-2.7	2.9	-5.3	-5.3	0.4	0.2	-5.3	-4.6	-4.5	24
Cc1cc(-c2nc(-c3ccc(OC(F)(F)F)cc3)no2)nn1Cc1ccnc(N2CCN(C3CC3)CC2)c1 [BAY_87-2243] (top concentration 1000 nM)	11.9	14.9	27.4	5.54	14.1	-6.66	8.54	16.5	6.34	18.7	30.1	6.84	6.44	23.5	8.64	3.84	2.54	16.9	0.04	-8.66
NS(=O)(=O)OC[C@@H]1C[C@@H](n2ccc3c(N[C@H]4CCc5ccccc54)ncnc32)C[C@@H]1O [Pevonedistat] (top concentration 10000 nM)	11.5	16.3	19.7	12.7	15.2	19.1	5.7	12.1	16.4	13.1	12.6	9.9	11.1	2.7	13.2	10	12.2	13.2	9.4	8.5
COc1cccc2c1C(=O)c1c(O)c3c(c(O)c1C2=O)C[C@@](O)(C(=O)CO)C[C@@H]3O[C@H]1C[C@H](N)[C@H](O)[C@H](C)O1 [Doxorubicin] (top concentration 1000 nM)	9.08	14.4	-3.62	-0.12	11.4	7.48	-0.42	0.78	7.28	9.88	2.78	4.08	5.18	7.18	13.8	5.48	13.4	3.08	-1.92	11.9
Cn1nccc1Nc1nccc(-c2ccn([C@H](CO)c3ccc(Cl)c(F)c3)c(=O)c2)n1 [Ravoxertinib] (top concentration 10000 nM)	11	-1.2	-0.3	3.6	12.6	5.2	-0.4	2.4	2	1.5	-0.8	0.7	3.5	-0.2	0.1	7	10.2	1.2	10	4.9
Cn1cncc1[C@@](N)(c1ccc(Cl)cc1)c1ccc2c(c1)c(-c1cccc(Cl)c1)cc(=O)n2C [Tipifarnib] (top concentration 10000 nM)	6.6	9.4	10	9	8.9	3	6.1	25.4	10.3	6.9	3.6	18.6	3.5	-1.1	11.9	1.6	8.2	13	1.4	9.2
CC1(C)OCCn2c1nc1c(N3CCOCC3)nc(-c3cnc(N)nc3)nc12 [GDC-0084] (top concentration 10000 nM)	10.7	6.1	2	11.8	5.1	3.9	3.2	5.1	6.9	8.2	2.9	14.4	10.9	-0.3	1.3	4.2	3	5.6	8.7	15
